# Results from patent US11299478B2, “2-cyanopyrimidin-4-yl carbamate or urea derivative or salt thereof, and pharmaceutical composition including same” (HANLIM PHARMACEUTICAL CO., LTD., priority 2018, dated 2022).
# Tests used:
# Format in all cases: biochemical
# [1] = biological target: cathepsin L (Homo sapiens, UniProt P07711); experiment: Inhibitory activity assay against cathepsin L (enzyme assay); settings: Z-Phe-Arg-AMC 2 μM, enzyme 3 nM, pH 5.5, 30 minutes
# How it was run: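 IC50s came from 4-parameter logistic fits of ten concentrations (10.0 μM down to 0.000508 μM). Reaction: 30 min, 3 nM enzyme, 2 μM Z-Phe-Arg-AMC, pH 5.5 MES buffer containing DTT, EDTA, Polysorbate 20 and 10% DMSO; fluorescence read 340/460 nm.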
# [2] = biological target: cathepsin B (Homo sapiens, UniProt P07858); experiment: Inhibitory activity assay against cathepsin B (enzyme assay); settings: Z-Arg-Arg-AMC 40 μM, enzyme 1 nM, pH 6.0, 90 minutes
# How it was run: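 Reaction run 90 min in MES buffer pH 6.0 containing DTT, EDTA, Polysorbate 20 and 10% DMSO, using 40 μM fluorogenic Z-Arg-Arg-AMC and 1 nM cathepsin B. Ten compound levels from 10.0 μM; AMC fluorescence at ex 340/em 460 nm fitted to a 4-parameter logistic for IC50.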
# [3] = biological target: T1, cathepsin K (Homo sapiens, UniProt P43235); experiment: Inhibitory activity assay against cathepsin K (enzyme assay); settings: Z-Phe-Arg-AMC 10 μM, enzyme 1 nM, pH 5.5, 30 minutes
# T1 sequence (P43235 115-329): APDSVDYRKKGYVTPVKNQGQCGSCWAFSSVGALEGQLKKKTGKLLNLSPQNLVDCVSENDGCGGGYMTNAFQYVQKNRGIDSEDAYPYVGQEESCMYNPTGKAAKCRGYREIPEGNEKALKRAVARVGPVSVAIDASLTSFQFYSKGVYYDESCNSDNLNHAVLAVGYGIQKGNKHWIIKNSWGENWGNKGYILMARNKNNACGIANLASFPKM
# How it was run: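 IC50 by 4-parameter logistic fit of fluorescence (ex 355 nm, em 460 nm) after 30 min reaction. Compound tested at 10 final concentrations from 10.0 μM down to 0.000508 μM against 1 nM enzyme and 10 μM Z-Phe-Arg-AMC, in MES buffer pH 5.5 with DTT, EDTA, Triton X-100 and 10% DMSO.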
# [4] = biological target: cathepsin S (Homo sapiens, UniProt P25774); experiment: Inhibitory activity assay against cathepsin S (enzyme assay); settings: Z-Phe-Arg-AMC 70 μM, enzyme 3 nM, pH 6.5, 45 minutes
# How it was run: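 Ten-point compound titration (10.0 to 0.000508 μM final) reacted 45 min with 3 nM cathepsin S and 70 μM Z-Phe-Arg-AMC in MES 50 mM pH 6.5, DTT 2.5 mM, EDTA 1.0 mM, BSA 0.001%, DMSO 10%. AMC release read at 340/460 nm; IC50 from four-parameter logistic fit.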
# Chain of cathepsin L (P07711 114-333, species assumed): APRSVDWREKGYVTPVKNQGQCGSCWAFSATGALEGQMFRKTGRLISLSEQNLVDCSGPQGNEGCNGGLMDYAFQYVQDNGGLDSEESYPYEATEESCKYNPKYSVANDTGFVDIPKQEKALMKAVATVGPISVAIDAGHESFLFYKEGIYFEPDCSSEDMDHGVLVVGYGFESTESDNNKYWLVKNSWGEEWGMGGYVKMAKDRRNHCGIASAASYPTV
# Chain of cathepsin S (P25774 115-331, species assumed): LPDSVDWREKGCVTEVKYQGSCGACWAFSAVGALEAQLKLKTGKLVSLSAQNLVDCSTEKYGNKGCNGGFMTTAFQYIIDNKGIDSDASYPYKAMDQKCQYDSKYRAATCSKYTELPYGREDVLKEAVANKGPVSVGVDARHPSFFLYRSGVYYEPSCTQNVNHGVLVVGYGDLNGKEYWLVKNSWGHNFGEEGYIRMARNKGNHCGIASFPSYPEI
SMILES,IC50 [1] [nM],IC50 [2] [nM],IC50 [3] [nM],IC50 [4] [nM]
"CS(=O)(=O)c1ccc(-c2ccc(NC(=O)NC3(c4ccnc(C#N)n4)CCCCC3)cc2)cc1F [Example 170, 1-(1-(2-cyanopyrimidin-4-yl)cyclohexyl)-3-(3′-fluoro-4′-(methylsulfonyl)-[1,1′-biphenyl]-4-yl)urea]",> 10000,> 10000,39.5,> 10000
"CS(=O)(=O)c1ccc(-c2ccc(NC(=O)NC3(c4ccnc(C#N)n4)CCCCC3)cc2)cc1C(F)(F)F [Example 171, 1-(1-(2-cyanopyrimidin-4-yl)cyclohexyl)-3-(4′-(methylsulfonyl)-3′-(trifluoromethyl)-[1,1′-biphenyl]-4-yl)urea]",> 10000,> 10000,24,2190
"N#Cc1nccc(C2(NC(=O)Nc3ccc(-c4ccccc4C(F)(F)F)cc3)CCCCC2)n1 [Example 172, 1-(1-(2-cyanopyrimidin-4-yl)cyclohexyl)-3-(2′-(trifluoromethyl)-[1,1′-biphenyl]-4-yl)urea]",> 10000,> 10000,108,8020
"N#Cc1nccc(C2(NC(=O)Nc3ccc(-c4ccc(S(N)(=O)=O)cc4)cc3)CCCCC2)n1 [Example 173, 4′-(3-(1-(2-cyanopyrimidin-4-yl)cyclohexyl)ureido)-[1,1′-biphenyl]-4-sulfonamide]",> 10000,> 10000,13.8,> 10000
"CS(=O)(=O)Nc1ccc(-c2ccc(NC(=O)NC3(c4ccnc(C#N)n4)CCCCC3)cc2)cc1 [Example 174, N-(4′-(3-(1-(2-cyanopyrimidin-4-yl)cyclohexyl)ureido)-[1,1′-biphenyl]-4-yl)methanesulfonamide]",> 10000,> 10000,11.7,> 10000
"N#Cc1nccc(C2(NC(=O)Nc3ccc(-c4ccccc4C(F)(F)F)c(C(F)(F)F)c3)CCCCC2)n1 [Example 176, 1-(2,2′-bis(trifluoromethyl)-[1,1′-biphenyl]-4-yl)-3-(1-(2-cyanopyrimidin-4-yl)cyclohexyl)urea]",> 10000,> 10000,122,5840
"N#Cc1nccc(C2(NC(=O)Nc3ccc(-c4ccc(S(=O)(=O)C(F)(F)F)cc4)c(C(F)(F)F)c3)CCCCC2)n1 [Example 177, 1-(1-(2-cyanopyrimidin-4-yl)cyclohexyl)-3-(2-(trifluoromethyl)-4′-((trifluoromethyl)sulfonyl)-[1,1′-biphenyl]-4-yl)urea]",> 10000,> 10000,205,6140
"CS(=O)(=O)c1ccc(-c2ccc(NC(=O)NC3(c4ccnc(C#N)n4)CCCCC3)cc2C(F)(F)F)cc1C(F)(F)F [Example 178, 1-(1-(2-cyanopyrimidin-4-yl)cyclohexyl)-3-(4′-(methylsulfonyl)-2,3′-bis(trifluoromethyl)-[1,1′-biphenyl]-4-yl)urea]",> 10000,> 10000,21.2,5600
"N#Cc1nccc(C2(NC(=O)Nc3ccc(-c4ccc(S(N)(=O)=O)cc4)c(C(F)(F)F)c3)CCCCC2)n1 [Example 179, 4′-(3-(1-(2-cyanopyrimidin-4-yl)cyclohexyl)ureido)-2′-(trifluoromethyl)-[1,1′-biphenyl]-4-sulfonamide]",7530,> 10000,11.5,2760
"CS(=O)(=O)Nc1ccc(-c2ccc(NC(=O)NC3(c4ccnc(C#N)n4)CCCCC3)cc2C(F)(F)F)cc1 [Example 180, N-(4′-(3-(1-(2-cyanopyrimidin-4-yl)cyclohexyl)ureido)-2′-(trifluoromethyl)-[1,1′-biphenyl]-4-yl)methanesulfonamide]",> 10000,> 10000,10.9,> 10000
"CC(C)N1CCN(c2ccc(-c3ccc(CNC(=O)NC4(c5ccnc(C#N)n5)CCCCC4)cc3)cc2)CC1 [Example 181, 1-(1-(2-cyanopyrimidin-4-yl)cyclohexyl)-3-((4′-(4-isopropylpiperazin-1-yl)-[1,1′-biphenyl]-4-yl)methyl)urea]",> 10000,> 10000,1.9,> 10000
"N#Cc1nccc(C2(NC(=O)Nc3ccc(C#CCCC(=O)O)cc3)CCCCC2)n1 [Example 182, 5-(4-(3-(1-(2-cyanopyrimidin-4-yl)cyclohexyl)ureido)phenyl)pent-4-ynoic acid]",> 10000,> 10000,10.5,> 10000
"N#Cc1nccc(C2(NC(=O)Nc3ccc(C#Cc4ccc(CO)cc4)cc3)CCCCC2)n1 [Example 183, 1-(1-(2-cyanopyrimidin-4-yl)cyclohexyl)-3-(4-((4-(hydroxymethyl)phenyl)ethynyl)phenyl)urea]",> 10000,> 10000,22,> 10000
"N#Cc1nccc(C2(NC(=O)Nc3ccc(-c4ccc(C(=O)NCCc5c[nH]cn5)cc4)cc3)CCCCC2)n1 [Example 184, N-(2-(1H-imidazol-4-yl)ethyl)-4′-(3-(1-(2-cyanopyrimidin-4-yl)cyclohexyl)ureido)-[1,1′-biphenyl]-4-carboxamide]",2420,2150,0.2,8050
"N#Cc1nccc(C2(NC(=O)Nc3ccc(-c4ccc(C(=O)NCCn5ccnc5)cc4)cc3)CCCCC2)n1 [Example 185, N-(2-(1H-imidazol-1-yl)ethyl)-4′-(3-(1-(2-cyanopyrimidin-4-yl)cyclohexyl)ureido)-[1,1′-biphenyl]-4-carboxamide]",4400,1760,0.1,> 10000
"N#Cc1nccc(C2(NC(=O)Nc3ccc(-c4ccc(C(=O)NCCn5ccnc5)cc4)c(F)c3)CCCCC2)n1 [Example 186, N-(2-(1H-imidazol-1-yl)ethyl)-4′-(3-(1-(2-cyanopyrimidin-4-yl)cyclohexyl)ureido)-2′-fluoro-[1,1′-biphenyl]-4-carboxamide]",2020,2740,0.1,> 10000
"N#Cc1nccc(C2(NC(=O)Nc3ccc(-c4ccc(C(=O)NCCn5nccn5)cc4)c(F)c3)CCCCC2)n1 [Example 188, N-(2-(2H-1,2,3-triazol-2-yl)ethyl)-4′-(3-(1-(2-cyanopyrimidin-4-yl)cyclohexyl)ureido)-2′-fluoro-[1,1′-biphenyl]-4-carboxamide]",> 10000,> 10000,16.1,4330
"N#Cc1nccc(C2(NC(=O)Nc3ccc(-c4ccc(C(=O)NCCc5c[nH]cn5)cc4)c(C(F)(F)F)c3)CCCCC2)n1 [Example 189, N-(2-(1H-imidazol-4-yl)ethyl)-4′-(3-(1-(2-cyanopyrimidin-4-yl)cyclohexyl)ureido)-2′-(trifluoromethyl)-[1,1′-biphenyl]-4-carboxamide]",1190,5400,0.6,> 10000
"N#Cc1nccc(C2(NC(=O)Nc3ccc(-c4ccc(OCCN)cc4)cc3)CCCCC2)n1 [Example 190, 1-(4′-(2-aminoethoxy)-[1,1′-biphenyl]-4-yl)-3-(1-(2-cyanopyrimidin-4-yl)cyclohexyl)urea]",> 10000,7870,0.3,> 10000
"CNCCOc1ccc(-c2ccc(NC(=O)NC3(c4ccnc(C#N)n4)CCCCC3)cc2)cc1 [Example 191, 1-(1-(2-cyanopyrimidin-4-yl)cyclohexyl)-3-(4′-(2-(methylamino)ethoxy)-[1,1′-biphenyl]-4-yl)urea]",> 10000,4760,0.1,> 10000
